Data taken from ChEMBL document CHEMBL1132519, “Synthesis and sar of 2- and 3-substituted 7-azaindoles as potential dopamine D4 ligands” (Bioorg Med Chem Lett, 1999).

What was measured:
D(2) dopamine receptor = D(2) dopamine receptor (Homo sapiens, UniProt P14416)
Description: Ability to displace [3H]spiperone from cloned human dopamine D2 receptor stably expressed in CHO cells

D(4) dopamine receptor = biological target: T1, D(4) dopamine receptor (Homo sapiens, UniProt P21917)
T1 sequence (P21917 whole entry): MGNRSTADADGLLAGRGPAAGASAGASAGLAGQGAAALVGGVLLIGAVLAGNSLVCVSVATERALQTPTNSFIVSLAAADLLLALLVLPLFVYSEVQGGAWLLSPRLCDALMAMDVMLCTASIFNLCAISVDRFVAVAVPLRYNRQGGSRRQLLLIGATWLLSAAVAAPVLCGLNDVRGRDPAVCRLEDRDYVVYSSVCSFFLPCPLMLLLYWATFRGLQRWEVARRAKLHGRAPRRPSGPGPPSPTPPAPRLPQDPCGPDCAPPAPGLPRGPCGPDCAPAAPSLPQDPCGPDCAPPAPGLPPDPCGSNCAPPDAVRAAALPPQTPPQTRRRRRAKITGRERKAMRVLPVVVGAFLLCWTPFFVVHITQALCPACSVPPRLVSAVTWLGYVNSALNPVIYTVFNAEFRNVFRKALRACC
Description: Ability to displace [3H]spiperone from cloned human dopamine D4 receptor stably expressed in HEK293 cells

D(3) dopamine receptor = D(3) dopamine receptor (Homo sapiens, UniProt P35462)
Sequence of D(3) dopamine receptor (P35462 whole entry): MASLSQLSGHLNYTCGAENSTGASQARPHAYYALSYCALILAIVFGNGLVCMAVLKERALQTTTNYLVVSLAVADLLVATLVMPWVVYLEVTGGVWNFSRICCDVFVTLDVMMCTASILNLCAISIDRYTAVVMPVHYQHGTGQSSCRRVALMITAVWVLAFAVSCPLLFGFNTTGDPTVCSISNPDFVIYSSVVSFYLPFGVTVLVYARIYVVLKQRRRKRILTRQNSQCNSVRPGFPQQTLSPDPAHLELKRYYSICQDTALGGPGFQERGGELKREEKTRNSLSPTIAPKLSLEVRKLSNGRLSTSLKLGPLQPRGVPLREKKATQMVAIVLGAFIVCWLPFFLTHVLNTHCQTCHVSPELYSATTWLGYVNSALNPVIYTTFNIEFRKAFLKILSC
Description: Ability to displace [3H]-spiperone from cloned human dopamine D3 receptor stably expressed in CHO cells

Sequence of D(2) dopamine receptor (P14416 whole entry): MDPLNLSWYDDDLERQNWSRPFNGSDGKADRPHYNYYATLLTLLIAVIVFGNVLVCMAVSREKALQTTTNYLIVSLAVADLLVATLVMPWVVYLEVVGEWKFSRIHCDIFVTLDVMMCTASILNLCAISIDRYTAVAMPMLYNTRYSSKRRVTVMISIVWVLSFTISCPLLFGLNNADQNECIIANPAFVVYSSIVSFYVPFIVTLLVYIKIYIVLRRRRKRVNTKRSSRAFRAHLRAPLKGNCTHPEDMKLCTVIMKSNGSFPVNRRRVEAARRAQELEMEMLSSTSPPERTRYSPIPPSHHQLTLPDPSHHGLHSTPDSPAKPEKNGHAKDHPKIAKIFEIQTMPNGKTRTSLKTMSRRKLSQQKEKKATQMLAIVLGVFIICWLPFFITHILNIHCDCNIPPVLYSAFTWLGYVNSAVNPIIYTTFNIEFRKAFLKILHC

| SMILES | Ki (D(2) dopamine receptor) | Ki (D(4) dopamine receptor) | Ki (D(3) dopamine receptor) |
| --- | --- | --- | --- |
| c1ccc2c(c1)CCN(Cc1c[nH]c3ncccc13)C2 | 640 nM | 7 nM | 170 nM |
| C1=C(/C=C/c2ccccc2)CCN(CCc2cc3ccc[nH]c-3n2)C1 | 1300 nM | 30 nM | 25 nM |
| c1ccc(CCC2CCN(Cc3c[nH]c4ncccc34)CC2)cc1 | 1100 nM | 1.8 nM | 1300 nM |
| c1ccc(CCC2CCN(Cc3cc4ccc[nH]c-4n3)CC2)cc1 | 200 nM | 2 nM | 250 nM |
| c1c[nH]c2nc(CN3CCc4ccccc4C3)cc-2c1 | 600 nM | 59 nM | 1100 nM |
| C1=C(c2ccccc2)CCN(CCc2c[nH]c3ncccc23)C1 | 21 nM | 34 nM | 10 nM |
| C1=C(/C=C/c2ccccc2)CCN(CCc2c[nH]c3ncccc23)C1 | 280 nM | 6.5 nM | 180 nM |
| COc1ccc(N2CCN(Cc3c[nH]c4ncccc34)CC2)cc1 | > 1500 nM |  | 3900 nM |
| Clc1ccc(N2CCN(CCc3cc4cccnc4[nH]3)CC2)cc1 | 800 nM | 11.7 nM | 50 nM |
| COc1ccc(N2CCN(CCc3c[nH]c4ncccc34)CC2)cc1 | 900 nM | 26 nM | 530 nM |
